Measured values as given in patent publication US9302999B2, “Substituted triazoles as herbicides” (E. I. DU PONT DE NEMOURS AND COMPANY, priority 2012, dated 2016).

Key:
Assay type in all cases: in vivo
[1] = system: panicum, fall (fall panicum Panicum dichotomiflorum); experiment: Test F pre-/postemergence: panicum, fall
Excerpt: (§1) Seeds of plant species selected from corn (Zea mays), soybean (Glycine max), velvetleaf (Abutilon theophrasti), lambsquarters (Chenopodium album), poinsettia, wild (wild poinsettia, Euphorbia heterophylla), pigweed, palmer (palmer pigweed, Amaranthus palmeri), waterhemp (common waterhemp, Amaranthus rudis), surinam grass (Brachiaria decumbens), crabgrass, Brazil (Brazilian crabgrass, Digitaria horizontalis), panicum, fall (fall panicum Panicum dichotomiflorum), crabgrass, large (large crabgrass, Digitaria sanguinalis), foxtail, giant (giant foxtail, Setaria faberii), foxtail, green (green foxtail Setaria viridis), goosegrass (Eleusine indica), ragweed (common ragweed, Ambrosia elatior), barnyardgrass (Echinochloa crus-galli), sandbur (southern sandbur, Cenchrus echinatus), arrowleaf sida (Sida rhombifolia), ryegrass, Italian (Italian ryegrass, Lolium multiflorum), dayflower, VA (Virginia (VA) dayflower, Commelina virginica), field bindweed (Convolvulus arvensis), cocklebur (common cocklebur, Xanthium strumarium), morningglory (Ipomoea coccinea), nightshade (eastern black nightshade, Solanum ptycanthum), kochia (Kochia scoparia), nutsedge, yellow (yellow nutsedge, Cyperus esculentus), johnsongrass (Sorghum halepense), smartweed (ladysthumb smartweed, Polygonum persicaria), and beggarticks (hairy beggarticks, Bidens pilosa), were planted into a silt loam soil and treated preemergence with test chemicals formulated in a non-phytotoxic solvent mixture which included a surfactant. At the same time, plants selected from these crop and weed species and also pigweed (Amaranthus retroflexus), waterhemp_RES1 (ALS/Triazine resistant common waterhemp, Amaranthus rudis) and waterhemp_RES2 (ALS/HPPD resistant common waterhemp, Amaranthus rudis) were planted in pots containing a planting medium comprising spaghnum peat moss, vermiculite, wetting agent and starter nutrients treated with postemergence applications of some of the test chemicals formulated in the same manner. Plants ranged in height from 2 to 18 cm for postemergence treatments (1- to 4-leaf stage).
(§2) Treated plants and controls were maintained in a greenhouse for 14 to 21 days, after which time all species were compared to controls and visually evaluated. Plant response ratings, summarized in Table E, are based on a scale of 0 to 100 where 0 is no effect and 100 is complete control. A dash (-) response means no test result.

[2] = system: dayflower, VA (Virginia (VA) dayflower, Commelina virginica); experiment: Test F pre-/postemergence: dayflower, VA
Excerpt: as §1, §2

[3] = system: foxtail, green (green foxtail Setaria viridis); experiment: Test F pre-/postemergence: foxtail, green; details: Preemergence
Excerpt: as §1, §2

[4] = system: waterhemp (common waterhemp, Amaranthus rudis); experiment: Test F pre-/postemergence: waterhemp
Excerpt: as §1, §2

[5] = system: barnyardgrass (Echinochloa crus-galli); experiment: Test F pre-/postemergence: barnyardgrass
Excerpt: as §1, §2

[6] = Preemergence, 16 g ai/ha, scale 0 to 100 (0 no effect, 100 complete control)
[7] = Preemergence, 31 g ai/ha, scale 0 to 100 (0 no effect, 100 complete control)
[8] = Preemergence, 125 g ai/ha, scale 0 to 100
[9] = Preemergence, 62 g ai/ha, scale 0 to 100
[10] = 16 g ai/ha, scale 0 to 100 (0 no effect, 100 complete control)
[11] = 31 g ai/ha, scale 0 to 100 (0 no effect, 100 complete control)
[12] = Postemergence, 8 g ai/ha, scale 0 to 100
[13] = Postemergence, 16 g ai/ha, scale 0 to 100
[14] = Postemergence, 31 g ai/ha, scale 0 to 100
[15] = Postemergence, 62 g ai/ha, scale 0 to 100
[16] = Postemergence, 125 g ai/ha, scale 0 to 100
[17] = Preemergence, 250 g ai/ha, scale 0 to 100

SMILES | Plant response rating, Panicum, Fall [1, 6] | Plant response rating, Panicum, Fall [1, 7] | Plant response rating, Panicum, Fall [1, 8] | Plant response rating, Dayflower, VA [2, 6] | Plant response rating, Dayflower, VA [2, 7] | Plant response rating, Dayflower, VA [2, 9] | Plant response rating, Dayflower, VA [2, 8] | Plant response rating, Foxtail, Green [3, 10] | Plant response rating, Foxtail, Green [3, 11] | Plant response rating, Foxtail, Green ([3]; 62 g ai/ha, scale 0 to 100) | Plant response rating, Foxtail, Green ([3]; 125 g ai/ha, scale 0 to 100) | Plant response rating, Waterhemp [4, 6] | Plant response rating, Waterhemp [4, 7] | Plant response rating, Waterhemp [4, 8] | Plant response rating, Barnyardgrass [5, 6] | Plant response rating, Barnyardgrass [5, 7] | Plant response rating, Barnyardgrass [5, 9] | Plant response rating, Barnyardgrass [5, 8] | other results
Fc1ccc(-n2nc(Cc3ccnc(C(F)(F)F)c3)c(OCC(F)(F)F)n2)cc1 [Compound 142] | 25 | 65 | 100 | 0 | 5 | 50 | 70 | 20 | 75 | 98 | 100 | 98 | 98 | 100 | 0 | 5 | 30 | 80 | –
Cc1nn(-c2ccc(F)c(F)c2)nc1Oc1ccnc(C(F)(F)F)c1 [Compound 145] | – | – | – | – | – | – | – | – | – | – | – | – | – | – | – | – | – | – | Plant response rating, Panicum, Fall [1, 12]: 10; Plant response rating, Panicum, Fall [1, 13]: 25; Plant response rating, Panicum, Fall [1, 14]: 40; Plant response rating, Panicum, Fall [1, 15]: 40; Plant response rating, Panicum, Fall [1, 16]: 40; Plant response rating, Dayflower, VA [2, 12]: 15; Plant response rating, Dayflower, VA [2, 13]: 20; Plant response rating, Dayflower, VA [2, 14]: 50; Plant response rating, Dayflower, VA [2, 15]: 60; Plant response rating, Dayflower, VA [2, 16]: 70; Plant response rating, Waterhemp [4, 12]: 90; Plant response rating, Waterhemp [4, 13]: 90; Plant response rating, Waterhemp [4, 14]: 95; Plant response rating, Waterhemp [4, 15]: 95; Plant response rating, Waterhemp [4, 16]: 95; Plant response rating, Barnyardgrass [5, 12]: 20; Plant response rating, Barnyardgrass [5, 13]: 20; Plant response rating, Barnyardgrass [5, 14]: 30; Plant response rating, Barnyardgrass [5, 15]: 30; Plant response rating, Barnyardgrass [5, 16]: 40
CCCc1nn(-c2ccc(F)cc2)nc1Cc1ccnc(C(F)(F)F)c1 [Compound 153] | 5 | 100 | 100 | 5 | 10 | 40 | 80 | 50 | 75 | 100 | 100 | 65 | 100 | 100 | 5 | 10 | 10 | 75 | Plant response rating, Panicum, Fall [1, 17]: 100; Plant response rating, Dayflower, VA [2, 17]: 95; Plant response rating, Foxtail, Green ([3]; 250 g ai/ha, scale 0 to 100): 100; Plant response rating, Waterhemp [4, 17]: 100; Plant response rating, Barnyardgrass [5, 17]: 100
